Experimental data: patent publication US20260102413A1, “TREATING PAIN ASSOCIATED WITH CENTRAL SENSITIZATION” (Medicon Pharmaceuticals, Inc., priority 2022, published 2026)

Legend:
[1] = test system: mice with chronic constriction injury (PTPN); assay: von Frey PWT, CCI model of PTPN, orally administered compounds; assay type: in vivo, mouse; settings: oral once a day: PS 50, PSA 50, sulindac 33 mg/kg
Method: Phospho-ibuprofen (PI) (Formula III), phospho-ibuprofen-amide (PIA) (Formula XI), ibuprofen and vehicle control were all administered orally, three times a day for 14 days. Their doses were as follows: PI 80 mg/kg, PIA 80 mg/kg, ibuprofen 40 mg/kg (all three are equimolar). […] Group 1: vehicle (n=5-8) • 2. Group 2: ibuprofen (n=5-8) • 3. Group 3: phospho-ibuprofen (PI) (n=5-8) • 4. Group 4: phospho-ibuprofen-amide (PIA) (n=5-8)

[2] = test system: mice with NTG-induced chronic migraine; assay: von Frey PWT, NTG-induced chronic migraine model; assay type: in vivo, mouse
Excerpt: The NTG-induced chronic migraine model was used as described previously.

[3] = test system: BALB/c mice infected with HSV-1 KOS strain (PHN); assay type: in vivo, mouse; settings: second experiment; sulindac 5% gel on both hind paws 3x/day for three days
Method: PHN was induced in mice by infecting them with the HSV-1 KOS strain virus and following established protocols (Ou et al, Front Immunol, 14, 1026269, 2023; Takasaki et al, Anesthesiology, 96 (5), 1168-74, 2002).
; Reckitt Benckiser). Three days later, HSV-1 (10^6 PFUs in 20 μl PBS) was inoculated on the shin of the right hind paw (5×5 mm) after scarification with sandpaper. The virus was applied directly to the scarified area. The contralateral hind paw was without inoculation. Mock infection was performed using the same virus inactivated by heating at 60° C. for 1 h.
In a second experiment, the effect of the parent compound, sulindac, was tested in the same mouse model. Five days post-inoculation, sulindac (as a 5% gel), or vehicle control were administered topically onto both hind paws of mice three times a day for three days.
PHN was induced in mice by infecting them with the HSV-1 KOS strain virus in line with the previous Examples.
Five days post-inoculation, NO-sulindac (Formula XLIV) (as a 5% gel), or vehicle control were administered topically onto both hind paws of mice three times a day for three days.

[4] = assay type: in vivo, mouse; settings: all tissues except the sciatic nerve (higher) and DRG (equal)
Method: At 0.5, 1, 3, 5, 12, 18, and 24 h, mice (n=4-5 mice/time point) were euthanized with CO2 inhalation. Blood was drawn immediately after death. Tissues, including paw skin, paw muscle, leg muscle, the sciatic nerve and lumbar DRG bilaterally were dissected quickly, immediately frozen in liquid nitrogen and stored at −80° C. until analyzed.

CC1=C(CC(=O)O)c2cc(F)ccc2/C1=C\c1ccc([S+](C)[O-])cc1 (stereo not drawn) [sulindac, reference compound]
PWT, g Mean ± SEM ([1]; Day 6): Day 6 = 0.6 ± 0.03 g
PWT, g Mean ± SEM ([1]; Day 14): Day 14 = 0.6 ± 0.0 g
PWT, g Mean ± SEM, Day 11 ([2]; NTG 0.4 mg sublingual every two days x5, oral once a day 11 days: PS 50, sulindac 33 mg/kg, 30 min after administration): 0.43 ± 0.03 g
PWT, g Mean ± SEM, Baseline ([2]; group baseline prior to NTG administration): 1.80 ± 0.12 g
PWT, g Mean ± SEM, Post-inoculation and treatment [3]: 0.56 ± 0.06 g
sulindac levels as % of those of PS [4]: around 25%
